Measurements: article PMC5035034, “Carbohydrate-Binding Non-Peptidic Pradimicins for the Treatment of Acute Sleeping Sickness in Murine Models” (PLoS Pathogens, 2016)

Molecular target: T1, VSG221 (variant surface glycoprotein 221, MITat 1.2) (Trypanosoma brucei, UniProt P26332)
T1 construct: soluble form VSG (sVSG) purified from parental bloodstream forms, N-glycosylated (Asn263, Asn428)
Assay: SPR (Biacore T200) on immobilized VSG221, […]
Type: binding

For `CN[C@@H]1[C@H](O[C@@H]2OC[C@@H](O)[C@H](O)[C@H]2O)[C@@H](O)[C@H](O[C@H]2c3cc(C)c(C(=O)N[C@H](C)C(=O)O)c(O)c3-c3c(cc4c(c3O)C(=O)c3cc(OC)cc(O)c3C4=O)[C@@H]2O)O[C@@H]1C` [PRM-A, pradimicin A], the “SPR (Biacore T200) on immobilized VSG221, 1.56 to 50 uM” value was “using the high-density parental Tb BSF VSG221 sensorchip, concentration-dependent binding of PRM-A could be observed”.
